The test system of this assay is U87MG subcutaneous tumor. Kind of assay: X-ray-induced afterglow in U87MG subcutaneous tumor-bearing mice. In kind it is in vivo, Balb/c nude mice. The note with it: local injection. As for the experimental part:
For in vivo RAI by IDPASu, subcutaneous U87-tumour-bearing mice were intratumorally injected with IDPASu(100 μM, […]) solubilized with P-cyclodextrin (100 μM). Each group has three mice. At different post-injection timepoints (0, 0.5, 1.0, 2.0, 4.0, 6.0, 8.0, 12.0, 16.0 and 24.0 h), the tumours were irradiated with X-rays (5 mGy, 250 μGy s^−1 for 20 s), followed by radio afterglow detection using the IVIS imaging system under the bioluminescence mode with an open filter and acquisition time of 120 s. Tumour-free areas were protected by a 3.4-mm-thick lead shield with a notch. […] Radio afterglow signals from brain tumours were recorded with the IVIS imaging system under the bioluminescence mode with an open filter and acquisition time of 120 s. […] The tumour sizes were calculated as per the above-mentioned equation, showing ~0 mm^3 for 1 day post-implantation, 6 mm^3 (tumour diameter, 2.3 mm) for 5 days post-implantation, 22 mm^3 for 10 days post-implantation, 43 mm^3 for 20 days post-implantation and 77 mm^3 for 30 days post-implantation. At 15 min post-intraperitoneal injection of aqueous d-luciferin sodium salt (500 μmol kg^−1) solution into mice with different tumour sizes, the bioluminescence signals from the tumour sites were recorded with the IVIS imaging system under the bioluminescence mode with an open filter and automatic acquisition time. […]

Each structure is given as a SMILES string.

With `COC(=C1C2CC3CC(C2)CC1C3)c1cc(O)c(I)cc1/C=C/C1=CC(=C(C#N)C#N)c2ccccc2S1` [IDPASu], the “Intensity per dose per mouse” value is recorded as 1.27 × 10^6 (p/s/cm2/sr)/(μg).

The values are drawn from patent US20260335468A1, “MOLECULAR RADIOAFTERGLOW PROBES FOR CANCER RADIODYNAMIC THERANOSTICS” (NANYANG TECHNOLOGICAL UNIVERSITY, priority 2023, published 2026).
